Reference: publication PMC12892976, “Alkylation-based optimization of antifungal FPPS inhibitors yields a potent, broad-spectrum lipophilic zoledronate derivative” (mBio, 2025)
Converted amounts (≈) assume the structure as drawn.

How the values were obtained:
fungal biofilms = experiment: biofilm XTT assay, summary across all biofilms tested; details: alone
A. fumigatus [1] = experiment: lipid peroxidation, TBARS assay (MDA); type: cell-based, Aspergillus fumigatus
Description: (§1) Cultures were incubated overnight, pelleted, and resuspended in 1 mL ice-cold PBS. Malondialdehyde (MDA) was extracted and quantified using a TBARS assay kit (Cayman Chemical #700870) according to the manufacturer’s instructions. MDA was normalized to total protein content in cell lysates.

C. neoformans [2] = experiment: lipid peroxidation, TBARS assay (MDA); type: cell-based, Cryptococcus neoformans
Description: as §1

C. albicans [3] = experiment: membrane permeabilization, nucleic acid leakage; type: cell-based, Candida albicans
Description: (§2) Membrane permeabilization was determined by measuring the leakage of nucleic acid into the supernatant ([19]). […] Suspensions were incubated at 30°C with shaking at 200 rpm for 6 h, then passed through a 0.45 µm syringe filter. The A260 of each filtrate was measured with a DS-11 FX +benchtop spectrophotometer (DeNovix).

Cryptococcus neoformans = experiment: time-kill assay; type: cell-based; details: 1× MIC, C. neoformans
Description: (§3) Cultures were incubated at 37°C with shaking at 200 rpm. Aliquots were withdrawn at 12, 24, 36, and 48 h post-treatment for both species, and additionally at 60 and 72 h for C. neoformans, then back-plated onto SDA. Viable cell counts were obtained after 48 h.

Candida albicans = experiment: time-kill assay; type: cell-based; details: 2× MIC, C. albicans
Description: as §3

C. neoformans [4] = experiment: ergosterol quantitation; type: cell-based, Cryptococcus neoformans; details: 1× MIC vs no-drug control
Description: (§4) Treated cultures were incubated at 30°C with shaking for 18 h for C. albicans and A. fumigatus and for 32 h for C. neoformans. Cell membrane ergosterol was then extracted and quantified as described previously ([48]).

A. fumigatus [5] = experiment: ROS accumulation, DCFDA; type: cell-based, Aspergillus fumigatus
Description: (§5) All cultures were incubated for 6 h and then labeled with 20 µM DCFDA in PBS for 30 min. Labeled cultures were transferred into a microplate, and fluorescence intensity was measured using a CLARIOstar plate reader (BMG Labtech).

C. albicans [6] = experiment: membrane fluidity, TMA-DPH anisotropy; type: cell-based, Candida albicans
Description: (§6) Candida albicans cells were incubated for 6 h, and C. neoformans cells were incubated for 9 h at 30°C, washed, then labeled with 2 µM TMA-DPH in PBS for 10 min. […] Mycelia were fixed, and protoplasts were prepared as described previously ([50]). Protoplasts were washed twice and labeled with 2 µM TMA-DPH in PBS for 30 min. For all labeled cultures, parallel and perpendicular fluorescence intensities were measured at 440 nm in a CLARIOstar plate reader (BMG Labtech), and anisotropy was calculated.

A. fumigatus [7] = experiment: membrane fluidity, TMA-DPH anisotropy; type: cell-based, Aspergillus fumigatus
Description: as §6

C. neoformans [8] = experiment: membrane fluidity, TMA-DPH anisotropy; type: cell-based, Cryptococcus neoformans
Description: as §6

TNF-α = test system: TNF-α; set-up: method as in PMID 23610597; details: cited from earlier work
C. neoformans [9] = experiment: membrane permeabilization, nucleic acid leakage; type: cell-based, Cryptococcus neoformans
Description: as §2

C. albicans [10] = experiment: membrane depolarization, diS-C3(3); type: cell-based, Candida albicans; details: diS-C3(3) emission maximum
Description: (§7) Membrane depolarization was determined using potential-sensitive fluorophore diS-C3(3) (Sigma), as described previously ([51]). Yeast cells and A. fumigatus conidia were treated as described above, then washed with citrate phosphate buffer and labeled with 20 nM diS-C3(3) at a final concentration of 10^6 cells/mL for yeasts and 10^4 conidia/mL for Aspergillus. Cells were transferred to a microplate (Invitrogen), then emission spectra between 560 and 585 nm (λexcitation = 531 nm) were obtained every 12 min for 1 h using a CLARIOstar plate reader (BMG Labtech). The emission λmax was determined at each timepoint.

C. albicans [11] = experiment: ergosterol quantitation; type: cell-based, Candida albicans; details: 1× MIC vs no-drug control
Description: as §4

C. neoformans [12] = experiment: membrane depolarization, diS-C3(3); type: cell-based, Cryptococcus neoformans; details: diS-C3(3) emission maximum
Description: as §7

[13] = test system: 12 pathogenic bacterial species; experiment: antibacterial MIC, summary of 12 pathogenic bacterial species; type: cell-based
Source text: (§8) […]; Table S3). […]. […] […].

Enterobacter aerogenes = experiment: antibacterial MIC; type: cell-based; details: Klebsiella aerogenes
Source text: as §8

Escherichia coli = experiment: antibacterial MIC; type: cell-based
Source text: as §8

Streptococcus pyogenes = experiment: antibacterial MIC; type: cell-based
Source text: as §8

Staphylococcus aureus = experiment: antibacterial MIC; type: cell-based
Source text: as §8

Streptococcus pneumoniae = experiment: antibacterial MIC; type: cell-based
Source text: as §8

Pseudomonas aeruginosa = experiment: antibacterial MIC; type: cell-based
Source text: as §8

Enterococcus faecalis = experiment: antibacterial MIC; type: cell-based
Source text: as §8

Proteus vulgaris = experiment: antibacterial MIC; type: cell-based
Source text: as §8

Salmonella Typhimurium = experiment: antibacterial MIC; type: cell-based; details: Salmonella enterica
Source text: as §8

Bacillus subtilis = experiment: antibacterial MIC; type: cell-based
Source text: as §8

A. fumigatus infection = experiment: Galleria mellonella survival assay; type: in vivo
Description: (§9) Galleria mellonella larvae were reared and prepared as described previously ([53]). Larvae (n = 12 per treatment) were each inoculated with 10^5 spores or cells of A. fumigatus, C. albicans, or C. neoformans in 10 µL of PBS. […] Treated larvae were incubated at 37°C, and mortality was evaluated every day for 10 days.

C. neoformans infection = experiment: Galleria mellonella survival assay; type: in vivo
Description: as §9

C. albicans infection = experiment: Galleria mellonella survival assay; type: in vivo
Description: as §9

A. fumigatus [14] = experiment: ergosterol quantitation; type: cell-based, Aspergillus fumigatus; details: 1× MIC vs no-drug control
Description: as §4

A. fumigatus [15] = experiment: membrane depolarization, diS-C3(3); type: cell-based, Aspergillus fumigatus; details: diS-C3(3) emission maximum
Description: as §7

C. neoformans [16] = experiment: ROS accumulation, DCFDA; type: cell-based, Cryptococcus neoformans
Description: as §5

Structure (SMILES): CCCCCCCCCCn1cc[n+](CC(O)(P(=O)(O)O)P(=O)(O)O)c1 [10-ZOL, Decyl-zoledronate]
- SIC80 range (fungal biofilms): 8 to 128 µg/mL
- concentration at which lipid peroxidation increase became significant (A. fumigatus [1]): 2 × MIC
- concentration at which lipid peroxidation increase became significant (C. neoformans [2]): 1 × MIC
- concentration giving significant increase in leaked nucleic acid (C. albicans [3]): ≥ 1 × MIC
- time at which viable cell count is significantly decreased from starting inoculum (Cryptococcus neoformans): 24 h
- time at which viable cell count is significantly decreased from starting inoculum (Candida albicans): 12 h
- membrane ergosterol content (C. neoformans [4]): significant depletion of membrane ergosterol
- concentration at which ROS (DCFDA fluorescence) increase became significant (A. fumigatus [5]): 2 × MIC
- concentration from which anisotropy differs significantly from no-drug control (C. albicans [6]): 0.5 × MIC
- concentration from which anisotropy differs significantly from no-drug control (A. fumigatus [7]): 2 × MIC
- concentration from which anisotropy differs significantly from no-drug control (C. neoformans [8]): 1 × MIC
- TNF-α release (TNF-α): stimulate the release of TNF-α
- concentration giving significant increase in leaked nucleic acid (C. neoformans [9]): ≥ 1 × MIC
- membrane depolarization (C. albicans [10]): dose-dependent depolarization effect
- membrane ergosterol content (C. albicans [11]): significant depletion of membrane ergosterol
- membrane depolarization (C. neoformans [12]): dose-dependent depolarization effect
- antibacterial activity [13]: limited or no antibacterial activity
- MIC (Enterobacter aerogenes): 16 µg/mL
- MIC (Escherichia coli): 16 µg/mL
- MIC (Streptococcus pyogenes): 16 µg/mL
- MIC (Staphylococcus aureus): 16 µg/mL
- MIC (Streptococcus pneumoniae): 16 µg/mL
- MIC (Pseudomonas aeruginosa): > 16 µg/mL
- MIC (Enterococcus faecalis): 16 µg/mL
- MIC (Proteus vulgaris): > 16 µg/mL
- MIC (Salmonella Typhimurium): > 16 µg/mL
- MIC (Bacillus subtilis): > 16 µg/mL
- survival compared with […] AMB (A. fumigatus infection; 64 µg/mL): no significant difference in survival
- larval mortality vs no-drug control (A. fumigatus infection; single infusion of 64 µg/mL): significantly reduced mortality
- survival compared with […] AMB (C. neoformans infection; 64 µg/mL): outperformed AMB
- larval mortality vs no-drug control (C. neoformans infection; single infusion of 64 µg/mL): significantly reduced mortality
- survival compared with […] AMB (C. albicans infection; 64 µg/mL): outperformed AMB
- larval mortality vs no-drug control (C. albicans infection; single infusion of 64 µg/mL): significantly reduced mortality
- membrane ergosterol content (A. fumigatus [14]): significant depletion of membrane ergosterol
- membrane depolarization (A. fumigatus [15]): dose-dependent depolarization effect
- concentration at which ROS (DCFDA fluorescence) increase became significant (C. neoformans [16]): 2 × MIC

Structure (SMILES): O=P(O)(O)C(O)(Cn1ccnc1)P(=O)(O)O [ZOL, zoledronate]
- MIC (Enterobacter aerogenes): > 256 µg/mL
- MIC (Escherichia coli): 256 µg/mL (≈ 941 µM)
- MIC (Streptococcus pyogenes): 256 µg/mL (≈ 941 µM)
- MIC (Staphylococcus aureus): 256 µg/mL (≈ 941 µM)
- MIC (Streptococcus pneumoniae): > 256 µg/mL
- MIC (Pseudomonas aeruginosa): > 256 µg/mL
- MIC (Enterococcus faecalis): 256 µg/mL (≈ 941 µM)
- MIC (Proteus vulgaris): 128 µg/mL (≈ 470 µM)
- MIC (Salmonella Typhimurium): 256 µg/mL (≈ 941 µM)
- MIC (Bacillus subtilis): 256 µg/mL (≈ 941 µM)
